Publication PMC2760094 (Journal of medicinal chemistry, 2009)

Columns and labels:
[1] = tested on: Melanoma (A 375, B16-F1) and Prostate Cancer Cells (DU145, PC-3, LNCaP, PPC-1); assay: Antiproliferative activity over melanoma and prostate cancer cell lines; assay type: cell-based, human and mouse
[2] = Cell cycle progression; assay type: cell-based; conditions: unpublished data
[3] = Water solubility; assay type: physicochemical
[4] = tested on: CCRF-CEM (Leukemia); assay: NCI-60 human tumor cell line screen, CCRF-CEM; assay type: cell-based; conditions: read-out: IC50 NCI-60, CCRF-CEM, lowest of the NCI-60 range
[5] = tested on: LNCaP cells; assay: SRB cytotoxicity assay, LNCaP prostate cancer; assay type: cell-based, human; conditions: read-out: IC50 ± SEM (μM) LNCaP, Table 2, 96 h
[6] = tested on: PPC-1 cells; assay: SRB cytotoxicity assay, PPC-1 prostate cancer; assay type: cell-based, human; conditions: read-out: IC50 ± SEM (μM) PPC-1, Table 2, 96 h
[7] = tested on: B16-F1 cells; assay: SRB cytotoxicity assay, B16-F1 melanoma; assay type: cell-based, mouse; conditions: read-out: IC50 ± SEM (μM) B16-F1, Table 2, 48 h
[8] = tested on: A375 cells; assay: SRB cytotoxicity assay, A375 melanoma; assay type: cell-based, human; conditions: read-out: IC50 ± SEM (μM) A375, Table 2, 48 h
[9] = tested on: DU 145 cells; assay: SRB cytotoxicity assay, DU 145 prostate cancer; assay type: cell-based, human; conditions: read-out: IC50 ± SEM (μM) DU 145, Table 2, 96 h

In the case of `COc1cc(NC(=O)[C@@H]2CSC(c3ccccc3)N2)cc(OC)c1OC` (mixture of isomers) [2a, (2RS, 4R)-2-Phenyl-N-(3,4,5-trimethoxyphenyl)thiazolidine-4-carboxamide], the “antiproliferative activity (in words)” value [1] is reported as “the potency against both cancer cell lines was lost”.

For `COc1cc(NC(=O)[C@@H]2CSC(c3cc(OC)c(OC)c(OC)c3)N2)cc(OC)c1OC` (mixture of isomers) [2b, (2RS, 4R)-N,2-bis(3,4,5-trimethoxyphenyl)thiazolidine-4-carboxamide], the “antiproliferative activity (in words)” value [1] was “the potency against both cancer cell lines was lost”.

`COc1cc(NC(=O)C2CSC(c3ccccc3)=N2)cc(OC)c1OC` (stereo in doubt) [4b, (4R)-2-Phenyl-N-(3,4,5-trimethoxyphenyl)-4,5-dihydrothiazole-4-carboxamide] gave an IC50 ([1]; read-out: IC50 over melanoma and prostate cancer cell lines) of 3400 to 38300 nM.

For `COc1ccccc1C(=O)c1csc(-c2ccccc2)n1` [8d, (2-Methoxyphenyl)(2-phenylthiazol-4-yl)-methanone], the “antiproliferative activity (in words)” value [1] was “weak activity against a certain cell lines”.

For `COc1cc(C(=O)c2csc(-c3ccccc3)n2)cc(OC)c1OC` [8f, (2-Phenyl-thiazol-4-yl)-(3,4,5-trimethoxy-phenyl)-methanone], the “cell cycle effect (in words)” value [2] was “significant increase in G2/M phase arrest”.

In the case of `COc1cc(OC)cc(C(=O)c2csc(-c3ccccc3)n2)c1` [8g, (3,5-Dimethoxyphenyl)(2-phenylthiazol-4-yl)-methanone], the “fold lower average cytotoxicity than 8f” value ([1]; against six different cell lines, relative to 8f) is reported as 6 fold.

With `O=C(c1ccccn1)c1csc(-c2ccccc2)n1` [8i, (2-Phenylthiazol-4-yl)-(pyridin-2-yl)-methanone] the “antiproliferative activity (in words)” value [1] was “total loss of the anti-cancer activity”.

With `COc1ccc(-c2nc(C(=O)c3cc(OC)c(OC)c(OC)c3)cs2)cc1OC` [8o, [2-(3,4-Dimethoxyphenyl)-thiazol-4-yl]-(3,4,5-trimethoxyphenyl)-methanone] the “antiproliferative activity (in words)” value [1] was “comparable antiproliferative activity”.

With `COc1cc(C(=O)c2csc(-c3ccc([N+](=O)[O-])cc3)n2)cc(OC)c1OC` [8p, [2-(4-Nitrophenyl)-thiazol-4-yl]-(3,4,5-trimethoxyphenyl)-methanone] the “antiproliferative activity (in words)” value [1] was “comparable antiproliferative activity”.

For `COc1cc(C(=O)c2csc(-c3ccc(C#N)cc3)n2)cc(OC)c1OC` [8q, 4-[4-(3,4,5-Trimethoxybenzoyl)-thiazol-2-yl]-benzonitrile], the “antiproliferative activity (in words)” value [1] was “comparable antiproliferative activity”.

With `COc1cc(C(=O)c2csc(-c3ccc(C(=O)O)cc3)n2)cc(OC)c1OC` [8r, 4-[4-(3,4,5-Trimethoxybenzoyl)-thiazol-2-yl]-benzoic acid] the “antiproliferative activity (in words)” value [1] was “total loss of the anti-cancer activity”.

For `COC(=O)c1ccc(-c2nc(C(=O)c3cc(OC)c(OC)c(OC)c3)cs2)cc1` [8s, Methyl-4-[4-(3,4,5-trimethoxybenzoyl)-thiazol-2-yl]-benzoate], the “antiproliferative activity (in words)” value [1] was “total loss of potency”.

In the case of `COc1cc(C(=O)c2csc(-c3ccc(C(F)(F)F)cc3)n2)cc(OC)c1OC` [8t, (2-(4-(Trifluoromethyl)-phenyl)-thiazol-4-yl)(3,4,5-trimethoxyphenyl)-methanone], the “antiproliferative activity (in words)” value [1] is reported as “comparable antiproliferative activity”.

For `COc1cc(C(=O)c2csc(-c3ncccn3)n2)cc(OC)c1OC` [8y, [2-(Pyrimidin-2-yl)-thiazol-4-yl]-(3,4,5-trimethoxyphenyl)-methanone], the “antiproliferative activity (in words)” value [1] was “kept partial activity against both cancer cells”.

For `COc1cc(NC(=O)c2csc(-c3ccccc3)n2)cc(OC)c1OC` [compound 5, 2-Phenyl-N-(3,4,5-trimethoxyphenyl)thiazole-4-carboxamide], the “antiproliferative activity (in words)” value [1] was “did not show any cytotoxicity against either cancer cell line tested”.

For `COc1cc(C(=O)c2cscn2)cc(OC)c1OC` [compound 10, Thiazol-4-yl-(3,4,5-trimethoxy-phenyl)-methanone], the “antiproliferative activity (in words)” value [1] was “total loss of activity”.

For `O=C(c1cc(O)c(O)c(O)c1)c1csc(-c2ccccc2)n1` [compound 11, (2-Phenyl-thiazol-4-yl)-(3,4,5-trihydroxy-phenyl)-methanone], the “water solubility (in words)” value [3] was “water soluble” and the “antiproliferative activity (in words)” value [1] was “complete loss of antiproliferative activity”.

In the case of “(2RS, 4R)-2-phenyl-thiazolidine-4-carboxylic acid hexadecylamide [ATCAA-1]”, the IC50 [4] is reported as 124 nM, the IC50 [5] is reported as 1 ± 0.1 µM and the IC50 [6] is reported as 0.4 ± 0.1 µM. The IC50 [7] was 2.2 ± 0.3 µM, the IC50 [8] was 2.1 ± 0.2 µM and the IC50 [9] was 1.7 ± 0.1 µM.
